Source: US9988341B2, “Bacterial topoisomerase inhibitors and use thereof” (THE FLORIDA INTERNATIONAL UNIVERSITY BOARD OF TRUSTEES, priority 2016, dated 2018)
pIC50: −log10 of the molar value. Where two headings read alike, the source gives them in different places.

How the values were obtained:
E. coli topoisomerase I = E. coli topoisomerase I (Escherichia coli, UniProt P06612); test: Bacterial topoisomerase I relaxation activity inhibition assay (EcTopI); type: biochemical; details: Table 1; individual compounds tested as crude material; read-out: EcTopI relaxation inhibition (IC50)
Chain of E. coli topoisomerase I (P06612 whole entry): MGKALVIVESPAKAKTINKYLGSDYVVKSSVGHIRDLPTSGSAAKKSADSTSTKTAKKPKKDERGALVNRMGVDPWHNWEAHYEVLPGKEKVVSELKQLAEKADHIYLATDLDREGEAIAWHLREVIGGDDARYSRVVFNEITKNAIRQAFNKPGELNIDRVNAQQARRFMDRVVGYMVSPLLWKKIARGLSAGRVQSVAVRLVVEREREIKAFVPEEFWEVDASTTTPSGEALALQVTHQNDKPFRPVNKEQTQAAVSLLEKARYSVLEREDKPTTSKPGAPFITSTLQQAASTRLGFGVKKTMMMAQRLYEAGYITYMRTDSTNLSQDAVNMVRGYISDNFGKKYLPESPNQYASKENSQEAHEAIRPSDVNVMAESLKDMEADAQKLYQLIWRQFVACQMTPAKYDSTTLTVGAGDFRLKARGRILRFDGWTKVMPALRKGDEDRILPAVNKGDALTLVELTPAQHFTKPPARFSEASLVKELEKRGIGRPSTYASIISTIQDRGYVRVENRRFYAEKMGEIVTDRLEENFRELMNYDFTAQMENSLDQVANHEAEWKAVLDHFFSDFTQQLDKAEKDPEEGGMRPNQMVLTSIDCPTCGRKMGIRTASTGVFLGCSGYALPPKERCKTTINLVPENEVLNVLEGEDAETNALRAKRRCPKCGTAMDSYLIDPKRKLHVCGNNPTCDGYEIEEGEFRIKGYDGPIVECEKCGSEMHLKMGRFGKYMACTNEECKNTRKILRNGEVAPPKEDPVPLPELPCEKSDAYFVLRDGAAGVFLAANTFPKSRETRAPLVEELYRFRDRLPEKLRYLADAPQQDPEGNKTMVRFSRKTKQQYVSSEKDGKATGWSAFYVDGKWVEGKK
Protocol: The relaxation activity of bacterial topoisomerase I was assayed in a buffer containing 10 mM Tris-HCl, pH 8.0, 50 mM NaCl, 0.1 mg/mL gelatin, and 0.5 mM MgCl2. One microliter of the compounds dissolved in DMF (dimethylformamide) or solvent alone was mixed with 10 μl of the reaction buffer containing 10 ng of enzyme before the addition of 9 μl of reaction buffer containing 160 ng of supercoiled pBAD/Thio plasmid DNA purified by cesium chloride gradient as substrate. Following incubation at 37° C. for 30 min, the reactions were terminated by the addition of 4 μl of 50% glycerol, 50 mM EDTA, and 0.5% (v/v) bromophenol blue, and analyzed by agarose gel electrophoresis. The gels were stained in ethidium bromide and photographed under UV light.

[1] = target: M. tuberculosis topoisomerase I (Mycobacterium tuberculosis, UniProt P9WG49); test: biochemical; details: Table 6; read-out: IC50 M. tuberculosis topoisomerase I
Chain of M. tuberculosis topoisomerase I (P9WG49 whole entry): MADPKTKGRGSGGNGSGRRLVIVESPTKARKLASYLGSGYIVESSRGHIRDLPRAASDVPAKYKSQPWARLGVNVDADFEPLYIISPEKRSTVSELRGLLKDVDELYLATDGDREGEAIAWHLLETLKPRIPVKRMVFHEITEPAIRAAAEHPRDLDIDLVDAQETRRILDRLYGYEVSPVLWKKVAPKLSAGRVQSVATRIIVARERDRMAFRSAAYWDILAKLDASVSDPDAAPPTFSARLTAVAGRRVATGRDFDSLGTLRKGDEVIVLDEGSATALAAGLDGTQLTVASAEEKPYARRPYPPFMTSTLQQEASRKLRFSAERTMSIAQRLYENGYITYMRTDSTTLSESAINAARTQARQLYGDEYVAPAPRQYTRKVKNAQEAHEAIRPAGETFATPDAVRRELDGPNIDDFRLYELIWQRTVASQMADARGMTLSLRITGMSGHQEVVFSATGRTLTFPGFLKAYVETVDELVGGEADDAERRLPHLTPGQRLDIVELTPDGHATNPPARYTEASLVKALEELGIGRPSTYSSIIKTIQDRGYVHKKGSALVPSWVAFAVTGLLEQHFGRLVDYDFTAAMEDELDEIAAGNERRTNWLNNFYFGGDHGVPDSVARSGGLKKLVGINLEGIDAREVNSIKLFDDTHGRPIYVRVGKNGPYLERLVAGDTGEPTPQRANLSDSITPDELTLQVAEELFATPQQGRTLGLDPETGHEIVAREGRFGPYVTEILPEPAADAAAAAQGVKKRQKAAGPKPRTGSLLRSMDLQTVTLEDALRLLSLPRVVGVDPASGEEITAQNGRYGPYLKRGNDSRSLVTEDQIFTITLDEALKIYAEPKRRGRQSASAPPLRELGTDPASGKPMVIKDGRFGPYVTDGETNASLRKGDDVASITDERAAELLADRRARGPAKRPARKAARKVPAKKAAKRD

Human Topoisomerase IIα = target: T1, Human Topoisomerase IIα (Homo sapiens, UniProt P11388); test: Human topoisomerase IIα decatenation inhibition assay; type: biochemical
T1 construct: purchased TopoGen
T1 sequence (P11388 whole entry): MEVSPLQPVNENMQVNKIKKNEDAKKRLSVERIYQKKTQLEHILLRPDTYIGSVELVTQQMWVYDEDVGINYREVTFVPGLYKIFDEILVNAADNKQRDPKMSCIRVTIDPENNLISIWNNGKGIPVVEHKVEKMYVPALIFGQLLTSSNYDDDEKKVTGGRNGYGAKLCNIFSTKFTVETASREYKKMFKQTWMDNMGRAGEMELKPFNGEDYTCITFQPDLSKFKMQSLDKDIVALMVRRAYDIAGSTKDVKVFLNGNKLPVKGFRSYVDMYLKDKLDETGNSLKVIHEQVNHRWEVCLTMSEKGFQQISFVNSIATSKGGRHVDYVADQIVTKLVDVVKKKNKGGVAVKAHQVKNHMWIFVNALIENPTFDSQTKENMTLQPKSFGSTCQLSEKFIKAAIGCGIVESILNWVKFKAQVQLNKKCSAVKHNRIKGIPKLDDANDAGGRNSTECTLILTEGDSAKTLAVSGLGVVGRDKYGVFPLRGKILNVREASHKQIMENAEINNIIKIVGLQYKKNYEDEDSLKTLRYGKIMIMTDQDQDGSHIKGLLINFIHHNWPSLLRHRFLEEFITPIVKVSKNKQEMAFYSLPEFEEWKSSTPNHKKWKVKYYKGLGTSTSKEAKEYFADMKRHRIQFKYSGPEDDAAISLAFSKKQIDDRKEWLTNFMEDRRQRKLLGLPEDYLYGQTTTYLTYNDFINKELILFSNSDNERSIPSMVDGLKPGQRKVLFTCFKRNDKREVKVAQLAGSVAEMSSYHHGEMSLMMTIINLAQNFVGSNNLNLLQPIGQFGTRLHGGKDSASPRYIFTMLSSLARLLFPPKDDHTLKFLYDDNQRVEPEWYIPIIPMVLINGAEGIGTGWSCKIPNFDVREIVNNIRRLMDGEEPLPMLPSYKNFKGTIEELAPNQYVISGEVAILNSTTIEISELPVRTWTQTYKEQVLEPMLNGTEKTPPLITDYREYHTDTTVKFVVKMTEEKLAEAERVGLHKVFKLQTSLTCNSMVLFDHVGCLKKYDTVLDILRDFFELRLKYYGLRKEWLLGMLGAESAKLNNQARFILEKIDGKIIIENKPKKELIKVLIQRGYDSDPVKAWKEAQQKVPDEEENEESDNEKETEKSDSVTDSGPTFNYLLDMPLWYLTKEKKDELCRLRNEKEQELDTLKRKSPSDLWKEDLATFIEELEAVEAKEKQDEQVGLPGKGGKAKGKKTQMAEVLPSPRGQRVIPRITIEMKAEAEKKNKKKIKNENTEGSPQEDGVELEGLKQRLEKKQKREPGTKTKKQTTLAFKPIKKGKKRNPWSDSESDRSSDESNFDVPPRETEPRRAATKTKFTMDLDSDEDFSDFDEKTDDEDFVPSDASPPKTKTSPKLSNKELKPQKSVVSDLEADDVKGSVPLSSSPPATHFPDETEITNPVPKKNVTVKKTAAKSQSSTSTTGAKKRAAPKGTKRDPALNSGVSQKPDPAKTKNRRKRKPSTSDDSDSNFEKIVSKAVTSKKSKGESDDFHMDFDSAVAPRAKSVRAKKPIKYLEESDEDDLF
Protocol: Human Topoisomerase IIα (obtained from TopoGen) assays were carried out by adding the compounds to 180 ng of kinetoplast DNA (kDNA) in the buffer supplied by the manufacturer before the addition of 2 U of the enzyme. The samples were incubated for 15 minutes at 37° C. before the addition of 4 μl of stop buffer containing 5% sarkosyl, 0.0025% bromophenol blue, and 25% glycerol. The reactions were then analyzed by electrophoresis in 1% agarose gels containing 0.5 μg ml^−1 ethidium bromide before being photographed under UV light.

Human topoisomerase I = target: T2, Human topoisomerase I (Homo sapiens, UniProt P11387); test: Human topoisomerase I relaxation inhibition assay; type: biochemical
T2 construct: purchased TopoGen
T2 sequence (P11387 1-765): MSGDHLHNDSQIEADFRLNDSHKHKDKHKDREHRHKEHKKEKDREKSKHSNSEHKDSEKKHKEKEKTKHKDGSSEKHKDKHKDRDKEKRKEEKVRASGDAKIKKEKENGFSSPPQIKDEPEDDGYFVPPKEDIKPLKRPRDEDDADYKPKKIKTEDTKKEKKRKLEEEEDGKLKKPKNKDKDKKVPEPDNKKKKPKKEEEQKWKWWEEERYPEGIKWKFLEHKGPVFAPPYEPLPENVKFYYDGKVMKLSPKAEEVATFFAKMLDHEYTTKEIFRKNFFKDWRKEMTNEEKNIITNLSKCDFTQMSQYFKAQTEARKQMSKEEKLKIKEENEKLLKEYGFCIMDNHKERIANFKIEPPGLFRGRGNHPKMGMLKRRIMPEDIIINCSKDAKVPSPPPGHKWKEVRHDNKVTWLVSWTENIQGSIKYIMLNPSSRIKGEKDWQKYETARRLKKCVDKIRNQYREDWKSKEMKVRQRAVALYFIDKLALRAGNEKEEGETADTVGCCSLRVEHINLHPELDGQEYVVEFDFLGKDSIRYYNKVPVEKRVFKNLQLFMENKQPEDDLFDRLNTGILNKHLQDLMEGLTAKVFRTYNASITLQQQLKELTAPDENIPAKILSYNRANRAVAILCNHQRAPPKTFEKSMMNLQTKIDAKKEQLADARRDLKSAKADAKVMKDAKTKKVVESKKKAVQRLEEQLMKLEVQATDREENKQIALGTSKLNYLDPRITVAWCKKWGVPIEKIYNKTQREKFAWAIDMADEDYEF
Protocol: Human topoisomerase I (obtained from TopoGen) relaxation assays were carried out with 0.5 U of enzyme in reaction buffer supplied by the manufacturer. The enzyme was mixed with the indicated concentration of compound dissolved before 160 ng of supercoiled pBAD/Thio plasmid DNA was added in the same buffer, for a final volume of 20 μL. Following incubation at 37° C. for 30 minutes, the reactions were terminated with a buffer containing 5% SDS, 0.25% bromophenol blue, and 25% glycerol, and analyzed by agarose gel electrophoresis.

E. coli DNA gyrase = target: T3, E. coli DNA gyrase (Escherichia coli, UniProt P0AES4+P0AES6); test: DNA gyrase supercoiling inhibition assay; type: biochemical
T3 construct: purchased New England BioLabs
T3 sequence (P0AES4 whole entry, one chain of several): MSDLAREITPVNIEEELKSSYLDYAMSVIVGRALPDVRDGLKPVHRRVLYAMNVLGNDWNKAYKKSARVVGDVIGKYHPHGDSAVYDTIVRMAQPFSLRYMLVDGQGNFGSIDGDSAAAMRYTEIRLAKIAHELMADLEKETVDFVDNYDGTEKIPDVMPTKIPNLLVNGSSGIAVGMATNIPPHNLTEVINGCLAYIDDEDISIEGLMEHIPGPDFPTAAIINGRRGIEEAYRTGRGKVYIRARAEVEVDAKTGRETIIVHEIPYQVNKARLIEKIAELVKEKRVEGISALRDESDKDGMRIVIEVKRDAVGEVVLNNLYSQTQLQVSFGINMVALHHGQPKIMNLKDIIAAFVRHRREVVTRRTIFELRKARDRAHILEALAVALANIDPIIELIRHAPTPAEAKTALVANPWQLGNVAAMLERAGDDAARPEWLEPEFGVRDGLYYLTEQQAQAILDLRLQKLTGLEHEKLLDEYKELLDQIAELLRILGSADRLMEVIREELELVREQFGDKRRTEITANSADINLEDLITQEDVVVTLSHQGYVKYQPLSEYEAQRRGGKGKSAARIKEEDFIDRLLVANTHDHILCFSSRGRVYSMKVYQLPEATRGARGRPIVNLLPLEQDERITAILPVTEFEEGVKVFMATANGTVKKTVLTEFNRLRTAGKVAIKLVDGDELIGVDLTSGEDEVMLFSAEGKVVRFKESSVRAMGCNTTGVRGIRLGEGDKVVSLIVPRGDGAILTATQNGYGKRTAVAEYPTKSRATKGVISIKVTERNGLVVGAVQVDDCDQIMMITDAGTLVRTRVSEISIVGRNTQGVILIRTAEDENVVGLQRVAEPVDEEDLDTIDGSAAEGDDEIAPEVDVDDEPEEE
Protocol: DNA gyrase (obtained from New England BioLabs) supercoiling assays were carried out by mixing the compounds with 2 U of the enzyme in reaction buffer supplied by the manufacturer, followed by the addition of 300 ng of relaxed covalently closed circular DNA was for a final reaction volume of 20 μL. The samples were incubated at 37° C. for 30 minutes before being terminated by the addition of a buffer containing 5% SDS, 0.25% bromophenol blue, and 25% glycerol. The reactions were then analyzed by agarose gel electrophoresis.

[2] = supercoiling, read-out: IC50 E. coli DNA gyrase

SMILES | pIC50 (E. coli topoisomerase I) | further results
CNCCCC[C@@H](CN)NC[C@H](CCCCNC)NCCCc1cccc(Br)c1 [Compound 2471-1] | 3.80 | 
CNCCCC[C@@H](CN)NC[C@H](CCCNC(=N)N)NCCCc1cccc(Br)c1 [Compound 2471-4] | 3.80 | 
CNCCCC[C@@H](CN)NC[C@H](CCCNC(=N)N)NCCCc1ccc(O)c(O)c1 [Compound 2471-5] | < 3.80 | 
CCC[C@H](CN[C@H](CN)CCCCNC)NCCCc1cccc(Br)c1 [Compound 2471-7] | 3.80 | 
CCC[C@H](CN[C@H](CN)CCCCNC)NCCCc1ccc(O)c(O)c1 [Compound 2471-8] | < 3.80 | 
CCCC[C@@H](CN[C@H](CN)CCCCNC)NCCCc1cccc(Br)c1 [Compound 2471-10] | 3.80 | 
CCCC[C@@H](CN[C@H](CN)CCCCNC)NCCCc1ccc(O)c(O)c1 [Compound 2471-11] | < 3.80 | 
CNCCCC[C@@H](CN[C@H](CN)CCCN)NCCCc1cccc(Br)c1 [Compound 2471-13] | 3.80 | 
CNCCCC[C@@H](CN[C@H](CN)CCCN)NCCCc1ccc(O)c(O)c1 [Compound 2471-14] | < 3.80 | 
N=C(N)NCCC[C@@H](CN[C@H](CN)CCCN)NCCCc1ccc(O)c(O)c1 [Compound 2471-17] | < 3.80 | 
CCC[C@H](CN[C@H](CN)CCCN)NCCCc1cccc(Br)c1 [Compound 2471-19] | 3.80 | 
CCC[C@H](CN[C@H](CN)CCCN)NCCCc1ccc(O)c(O)c1 [Compound 2471-20] | < 3.80 | 
CCCC[C@@H](CN[C@H](CN)CCCN)NCCCc1cccc(Br)c1 [Compound 2471-22] | 3.80 | 
CCCC[C@@H](CN[C@H](CN)CCCN)NCCCc1ccc(O)c(O)c1 [Compound 2471-23] | < 3.80 | 
CNCCCC[C@H](CN)NC[C@H](CCCCNC)NCCCc1cccc(Br)c1 [Compound 2471-25] | 3.80 | 
CNCCCC[C@H](CN)NC[C@H](CCCNC(=N)N)NCCCc1ccc(O)c(O)c1 [Compound 2471-29] | 3.92 | 
CCC[C@H](CN[C@@H](CN)CCCCNC)NCCCc1cccc(Br)c1 [Compound 2471-31] | 3.80 | 
CCC[C@H](CN[C@@H](CN)CCCCNC)NCCCc1ccc(O)c(O)c1 [Compound 2471-32] | < 3.80 | 
CCCC[C@@H](CN[C@@H](CN)CCCCNC)NCCCc1cccc(Br)c1 [Compound 2471-34] | 3.80 | 
CCCC[C@@H](CN[C@@H](CN)CCCCNC)NCCCc1ccc(O)c(O)c1 [Compound 2471-35] | < 3.80 | 
CCCC[C@H](CN[C@H](CN)CC1CCCCC1)NCC1CCC(C(C)(C)C)CC1 (some centres unmarked) [Compound 2471-50] | 3.80 | 

SMILES | pIC50 (E. coli topoisomerase I) | further results
CCCC[C@H](CN[C@H](CN)CC1CCCCC1)NCCCCCC1CCCCC1 [Compound 2471-51] | 3.80 | 
CNCCC[C@@H](CN[C@H](CN)CC1CCCCC1)NCCCc1cc(C(F)(F)F)cc(C(F)(F)F)c1 [Compound 2471-52] | 3.80 | 
CNCCC[C@@H](CN[C@H](CN)CC1CCCCC1)NCC1CCC(C(C)(C)C)CC1 (some centres unmarked) [Compound 2471-53] | < 3.80 | 
CNCCC[C@@H](CN[C@H](CN)CC1CCCCC1)NCCCCCC1CCCCC1 [Compound 2471-54] | < 3.80 | 
CNCCC[C@H](CN[C@H](CN)CC1CCCCC1)NCCCc1cc(C(F)(F)F)cc(C(F)(F)F)c1 [Compound 2471-55] | 3.80 | 
CNCCC[C@H](CN[C@H](CN)CC1CCCCC1)NCC1CCC(C(C)(C)C)CC1 (some centres unmarked) [Compound 2471-56] | 3.80 | 
CNCCC[C@H](CN[C@H](CN)CC1CCCCC1)NCCCCCC1CCCCC1 [Compound 2471-57] | 3.80 | 
CCCC[C@H](CN[C@@H](CN)CC1CCCCC1)NCC1CCC(C(C)(C)C)CC1 (some centres unmarked) [Compound 2471-62] | 3.80 | 
CCCC[C@H](CN[C@@H](CN)CC1CCCCC1)NCCCCCC1CCCCC1 [Compound 2471-63] | 3.80 | 
CNCCC[C@@H](CN[C@@H](CN)CC1CCCCC1)NCCCc1cc(C(F)(F)F)cc(C(F)(F)F)c1 [Compound 2471-64] | 3.80 | 
CNCCC[C@@H](CN[C@@H](CN)CC1CCCCC1)NCC1CCC(C(C)(C)C)CC1 (some centres unmarked) [Compound 2471-65] | 3.80 | 
CNCCC[C@@H](CN[C@@H](CN)CC1CCCCC1)NCCCCCC1CCCCC1 [Compound 2471-66] | 3.80 | 
CNCCC[C@H](CN[C@@H](CN)CC1CCCCC1)NCCCc1cc(C(F)(F)F)cc(C(F)(F)F)c1 [Compound 2471-67] | 3.80 | 
CNCCC[C@H](CN[C@@H](CN)CC1CCCCC1)NCC1CCC(C(C)(C)C)CC1 (some centres unmarked) [Compound 2471-68] | 3.80 | 
CC(C)(C)C1CCC(CN[C@H](CN[C@@H](CN)CC2CCCCC2)Cc2ccc(F)cc2)CC1 (some centres unmarked) [Compound 2471-71] | 4.40 | 
CCC[C@H](CN)NC[C@@H](CCCNC(=N)N)NCCc1cccc2ccccc12 [Compound 2580-3] |  | pIC50 [1]: 5.22; pIC50 (Human Topoisomerase IIα): < 4.10; pIC50 (Human topoisomerase I): < 4.10; pIC50 (E. coli DNA gyrase; [2]): < 4.10
CNCCC[C@H](CN)NC[C@@H](CCCNC(=N)N)NCCc1cccc2ccccc12 [Compound 2580-15] |  | pIC50 [1]: 6.14; pIC50 (Human Topoisomerase IIα): < 4.05; pIC50 (Human topoisomerase I): < 4.05; pIC50 (E. coli DNA gyrase; [2]): < 4.05
CCCC[C@H](CN[C@@H](CN)CCCNC)NCCc1cccc2ccccc12 [Compound 2580-18] |  | pIC50 [1]: 5.49; pIC50 (Human Topoisomerase IIα): < 4.00; pIC50 (Human topoisomerase I): < 4.00; pIC50 (E. coli DNA gyrase; [2]): < 4.00
CNCCC[C@H](CN)NC[C@@H](Cc1ccc2ccccc2c1)NCCc1cccc2ccccc12 [Compound 2580-24] |  | pIC50 [1]: 5.10; pIC50 (Human Topoisomerase IIα): < 4.07; pIC50 (Human topoisomerase I): < 4.07; pIC50 (E. coli DNA gyrase): < 4.07
CNCCC[C@@H](CN[C@@H](CN)Cc1ccc2ccccc2c1)NCCc1cccc2ccccc12 [Compound 2580-33] |  | pIC50 [1]: 5.10; pIC50 (Human Topoisomerase IIα): < 4.07; pIC50 (Human topoisomerase I): < 4.07; pIC50 (E. coli DNA gyrase): < 4.07
